What was measured:
[1] = target: T1, Peroxisome proliferator-activated receptor alpha (Homo sapiens, UniProt Q07869); assay type: functional
T1 sequence (Q07869 whole entry): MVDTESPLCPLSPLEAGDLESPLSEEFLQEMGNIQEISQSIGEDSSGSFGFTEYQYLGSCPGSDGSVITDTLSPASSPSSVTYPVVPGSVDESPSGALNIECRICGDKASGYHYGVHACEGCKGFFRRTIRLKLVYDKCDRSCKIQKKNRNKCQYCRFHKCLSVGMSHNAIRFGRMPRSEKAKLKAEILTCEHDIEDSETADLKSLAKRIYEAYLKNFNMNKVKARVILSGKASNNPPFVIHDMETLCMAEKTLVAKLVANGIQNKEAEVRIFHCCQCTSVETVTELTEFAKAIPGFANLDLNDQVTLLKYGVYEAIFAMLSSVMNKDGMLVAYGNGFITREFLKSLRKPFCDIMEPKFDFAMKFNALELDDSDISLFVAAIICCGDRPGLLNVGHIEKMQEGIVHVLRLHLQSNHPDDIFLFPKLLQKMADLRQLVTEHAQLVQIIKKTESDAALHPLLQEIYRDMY

[2] = target: T2, Progesterone receptor (Homo sapiens, UniProt P06401)
T2 sequence (P06401 whole entry): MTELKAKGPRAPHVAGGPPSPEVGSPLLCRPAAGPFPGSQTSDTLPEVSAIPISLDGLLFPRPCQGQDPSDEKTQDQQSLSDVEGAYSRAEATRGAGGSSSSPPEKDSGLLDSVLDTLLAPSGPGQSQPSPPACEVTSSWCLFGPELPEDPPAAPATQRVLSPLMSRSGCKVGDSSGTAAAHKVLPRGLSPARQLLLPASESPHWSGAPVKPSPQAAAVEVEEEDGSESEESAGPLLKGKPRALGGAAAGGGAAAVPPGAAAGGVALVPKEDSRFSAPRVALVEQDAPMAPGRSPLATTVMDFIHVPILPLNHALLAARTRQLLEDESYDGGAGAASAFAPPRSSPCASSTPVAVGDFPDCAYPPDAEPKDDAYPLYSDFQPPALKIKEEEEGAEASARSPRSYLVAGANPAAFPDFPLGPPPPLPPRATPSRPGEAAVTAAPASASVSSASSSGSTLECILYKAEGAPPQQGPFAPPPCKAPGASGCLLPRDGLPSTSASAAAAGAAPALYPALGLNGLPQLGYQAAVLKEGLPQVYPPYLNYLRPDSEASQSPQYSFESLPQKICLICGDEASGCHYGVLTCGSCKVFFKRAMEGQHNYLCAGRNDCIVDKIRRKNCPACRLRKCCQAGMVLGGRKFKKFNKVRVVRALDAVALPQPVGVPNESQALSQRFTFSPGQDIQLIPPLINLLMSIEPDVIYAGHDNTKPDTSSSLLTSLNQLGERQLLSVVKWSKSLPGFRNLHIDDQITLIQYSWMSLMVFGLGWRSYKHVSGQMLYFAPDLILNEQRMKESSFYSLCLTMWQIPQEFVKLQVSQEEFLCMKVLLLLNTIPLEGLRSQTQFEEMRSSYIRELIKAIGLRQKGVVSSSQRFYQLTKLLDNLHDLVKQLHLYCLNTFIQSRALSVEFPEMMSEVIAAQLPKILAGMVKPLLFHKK

[3] = target: T3, Alpha-1A adrenergic receptor (Homo sapiens, UniProt P35348)
T3 sequence (P35348 whole entry): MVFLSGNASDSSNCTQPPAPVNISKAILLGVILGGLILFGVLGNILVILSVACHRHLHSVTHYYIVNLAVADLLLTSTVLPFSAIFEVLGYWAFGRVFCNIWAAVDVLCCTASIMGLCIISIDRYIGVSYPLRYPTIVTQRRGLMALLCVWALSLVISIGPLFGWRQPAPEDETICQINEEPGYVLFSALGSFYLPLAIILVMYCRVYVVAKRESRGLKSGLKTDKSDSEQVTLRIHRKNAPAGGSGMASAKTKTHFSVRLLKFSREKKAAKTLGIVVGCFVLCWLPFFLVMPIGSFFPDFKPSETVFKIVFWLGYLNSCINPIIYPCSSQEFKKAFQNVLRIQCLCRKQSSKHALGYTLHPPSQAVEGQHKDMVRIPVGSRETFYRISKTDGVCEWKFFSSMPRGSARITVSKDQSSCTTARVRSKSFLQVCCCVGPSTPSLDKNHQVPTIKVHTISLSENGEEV

[4] = target: Estrogen receptor beta (Homo sapiens, UniProt Q92731)
[5] = target: T4, Glucocorticoid receptor (Homo sapiens, UniProt P04150); assay type: functional
T4 sequence (P04150 whole entry): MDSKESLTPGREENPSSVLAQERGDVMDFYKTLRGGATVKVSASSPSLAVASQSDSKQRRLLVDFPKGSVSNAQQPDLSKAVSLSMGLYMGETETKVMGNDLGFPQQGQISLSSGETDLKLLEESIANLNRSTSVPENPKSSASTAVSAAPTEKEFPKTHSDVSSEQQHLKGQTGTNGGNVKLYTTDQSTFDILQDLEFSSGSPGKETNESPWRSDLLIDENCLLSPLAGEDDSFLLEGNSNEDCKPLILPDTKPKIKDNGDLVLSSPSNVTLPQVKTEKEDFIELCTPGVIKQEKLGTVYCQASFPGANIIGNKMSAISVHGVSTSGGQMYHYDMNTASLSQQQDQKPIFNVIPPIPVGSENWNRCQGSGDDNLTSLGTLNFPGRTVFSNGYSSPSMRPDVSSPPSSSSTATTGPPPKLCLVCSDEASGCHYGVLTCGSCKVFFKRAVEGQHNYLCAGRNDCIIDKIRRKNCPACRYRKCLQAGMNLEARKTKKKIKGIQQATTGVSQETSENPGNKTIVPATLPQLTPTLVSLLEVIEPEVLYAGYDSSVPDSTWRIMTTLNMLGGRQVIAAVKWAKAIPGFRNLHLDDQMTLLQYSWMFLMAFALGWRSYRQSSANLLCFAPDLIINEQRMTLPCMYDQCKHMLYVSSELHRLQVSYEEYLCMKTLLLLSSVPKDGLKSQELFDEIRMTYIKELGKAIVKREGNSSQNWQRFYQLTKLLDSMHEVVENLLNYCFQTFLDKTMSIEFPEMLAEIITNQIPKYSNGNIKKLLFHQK
Also: assay procedure not described here.

Chain of Estrogen receptor beta (Q92731 whole entry): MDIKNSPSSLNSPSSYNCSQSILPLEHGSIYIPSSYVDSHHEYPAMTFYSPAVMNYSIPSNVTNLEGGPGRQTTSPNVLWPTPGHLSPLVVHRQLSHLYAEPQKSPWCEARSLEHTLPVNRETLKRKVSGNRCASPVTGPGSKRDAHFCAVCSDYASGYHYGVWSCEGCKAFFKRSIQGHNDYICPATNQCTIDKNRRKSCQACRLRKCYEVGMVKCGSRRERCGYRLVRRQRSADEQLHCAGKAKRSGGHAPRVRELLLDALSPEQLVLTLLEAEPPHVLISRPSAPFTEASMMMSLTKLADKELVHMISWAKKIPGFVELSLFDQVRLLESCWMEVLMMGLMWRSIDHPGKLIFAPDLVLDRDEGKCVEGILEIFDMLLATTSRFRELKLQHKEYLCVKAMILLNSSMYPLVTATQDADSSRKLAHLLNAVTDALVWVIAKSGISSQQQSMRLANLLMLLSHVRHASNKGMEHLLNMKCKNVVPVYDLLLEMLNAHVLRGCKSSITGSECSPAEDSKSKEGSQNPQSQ

SMILES	AC50 [2] [µM]	AC50 [3] [µM]	AC50 [4] [µM]	further results
CC(C)(Oc1ccc(Cl)cc1)C(=O)OCCOC(=O)c1cccnc1 [ETOFIBRATE]	–	–	–	AC50 [1]: > 30 µM
N=C(N)NC(=O)c1nc(Cl)c(N)nc1N [AMILORIDE]	> 30	> 10	> 30	–
C[C@]12C=CC(=O)C=C1CC[C@@H]1[C@@H]2[C@@H](O)C[C@@]2(C)[C@H]1CC[C@]2(O)C(=O)CO [PREDNISOLONE]	–	–	> 30	–
Cc1ccc(O)c([C@H](CCN(C(C)C)C(C)C)c2ccccc2)c1 [TOLTERODINE]	–	> 10	–	–
COc1cccc2c1C(=O)c1c(O)c3c(c(O)c1C2=O)C[C@@](O)(C(=O)CO)C[C@@H]3O[C@H]1C[C@H](N)[C@H](O)[C@H](C)O1 [DOXORUBICIN]	1.7	–	–	AC50 [5]: > 10 µM

— ChEMBL document CHEMBL5291721, “A preclinical secondary pharmacology resource illuminates target-adverse drug reaction associations of marketed drugs” (Nat Commun, 2023)
